According to patent US9421208B2, “Methods for the treatment of solid tumors” (Pharmacyclics LLC, priority 2013, dated 2016):
“Also recorded” adds a separate entry of the source.

System: lung tumors in Grg1 transgenic mice
Test: Tumor development in Grg1 transgenic mouse model of non-small cell lung cancer
Assay type: in vivo
Conditions: for tumors visible on whole lung lobes: 3 month mice after 4 weeks of treatment (FIG. 8); for average number of surface tumors per mouse: abexinostat 12 mg/kg BID i.p., ibrutinib ~22 mg/kg/day in drinking water; for tumor histology in lung tissue sections: 6 month mice after 4 weeks of treatment; for tumors visible on whole left lung lobes: 6 month mice after 4 weeks of treatment (FIG. 7); for average number of large tumors (over 1 mm in diameter) per mouse: 6 month samples, tissue sections of left lung lobe
Protocol: The aim of the experiment is to evaluate the effect of two drugs on tumor development in a mouse model of non-small cell lung cancer.
Grg1 transgenic mice were used to evaluate the drugs. Grg1 transgenic mice overexpress the Groucho-related gene 1 (Grg1). The mice develop lung tumors that resemble human non-small cell lung cancer. Tumors initiate at 1 month of age and progress to invasive adenocarcinoma by 8 months of age. The drugs were administered to 2 month-old mice or to 5 month-old mice, and mice were treated for 4 weeks. The former group is referred to as the 3 month samples and the latter as the 6 month samples.
Mice were bred to generate double transgenic (Grg1/Cre recombinase) mice on a CD1 background. Four groups of female double transgenic mice were established:
At least 8 mice in each group were treated at 2 months old and 8 mice in each group were treated at 5 months old. Treatments lasted 4 weeks, and mice were sacrificed at 3 months and 6 months. Therefore samples are referred to as 3 month samples or 6 month samples.
Abexinostat was administered by intraperitoneal (i.p.) injection, twice per day for five days each week. Mice were weighed and injected with 6 μl per gram body weight of a 1 mg/ml solution. The dosage was 12 mg/kg BID.
Mice were treated for 4 weeks. After treatment, mice were euthanized and lung tissue was examined.
For quantitation of tumors, the total visible tumors on the lung surface were counted using a dissecting microscope. In addition, the left lung lobe was fixed in 4% PFA, paraffin-embedded and 5 μm sections were taken for 100 μm at two levels. The first level began 30 μm below the lung surface and the second level began 130 μm below the lung surface. Alternate slides were H&E stained, and tumors were detected and counted using a dissecting microscope. Tumor diameter was measured using an inverted microscope and reticule.

[1] = 3 month samples: treated 4 weeks from 2 months
[2] = 6 month samples: treated 4 weeks from 5 months

## CN(C)Cc1c(C(=O)NCCOc2ccc(C(=O)NO)cc2)oc2ccccc12 [Abexinostat, 3-[(dimethylamino)methyl]-N-{2-[4-(hydroxycarbamoyl)phenoxy]ethyl}-1-benzofuran-2-carboxamide]
  tumors visible on whole lung lobes: one small tumor is visible
  tumor histology in lung tissue sections: high number of apoptotic cells; also recorded: lymphocyte infiltration, necrosis and large areas with apoptotic cells
  tumors visible on whole left lung lobes: medium and small tumors are visible
  average number of large tumors (over 1 mm in diameter) per mouse: 0.5
[1]
  average number of surface tumors per mouse: 3.0
[2]
  average number of surface tumors per mouse: 4.6

## C=CC(=O)N1CCC[C@@H](n2nc(-c3ccc(Oc4ccccc4)cc3)c3c(N)ncnc32)C1 [Ibrutinib, (R)-1-(3-(4-amino-3-(4-phenoxyphenyl)-1H-pyrazolo[3,4-d]pyrimidin-1-yl)piperidin-1-yl)prop-2-en-1-one]
  tumors visible on whole lung lobes: one small tumor is visible
  tumor histology in lung tissue sections: lack the high number of apoptotic macrophages; also recorded: less tumor necrosis than the control samples; also recorded: lymphocyte infiltration but not the apoptotic macrophages seen in the control and in Abexinostat-treated mice
  tumors visible on whole left lung lobes: medium and small tumors are visible
  average number of large tumors (over 1 mm in diameter) per mouse: 0.5
[1]
  average number of surface tumors per mouse: 2.6
[2]
  average number of surface tumors per mouse: 7.6
6 month sections (FIG. 9)
  tumor diameter in 6 month sections: no small tumors in Ib-treated sections, just one large tumor
